This passage reports AC50, IC50 and EC50 results from ChEMBL document CHEMBL1201862, “PubChem BioAssay data set” (2004).

Assay [1] in a line: MITF Orthogonal Assay: SK-MEL-5 CTG Assay Measured in Cell-Based System Using Plate Reader - 2084-02_Inhibitor_Dose_DryPowder_Activity_Set7. The class given is functional.
Assay [2] is described as follows: MITF: Counter assay: A375 proliferation Measured in Cell-Based System Using Plate Reader - 2084-03_Inhibitor_Dose_DryPowder_Activity_Set8. The class given is functional. Particulars: A-375.
The nature of assay [3]: cells. The class given is functional, cell-based.
Assay [4] has as its target T1, Trace amine-associated receptor 1 (Homo sapiens, UniProt Q96RJ0).
T1 sequence (Q96RJ0 whole entry): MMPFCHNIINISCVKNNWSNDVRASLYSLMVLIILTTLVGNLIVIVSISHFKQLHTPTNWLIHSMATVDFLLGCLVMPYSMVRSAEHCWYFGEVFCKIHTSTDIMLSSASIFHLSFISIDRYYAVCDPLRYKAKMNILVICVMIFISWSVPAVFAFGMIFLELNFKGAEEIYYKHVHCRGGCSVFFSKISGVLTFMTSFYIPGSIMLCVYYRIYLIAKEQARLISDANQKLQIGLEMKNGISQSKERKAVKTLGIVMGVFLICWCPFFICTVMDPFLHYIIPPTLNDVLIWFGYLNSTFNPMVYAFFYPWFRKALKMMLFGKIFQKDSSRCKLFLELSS
Put plainly: Fluorescence-based cell-based high throughput dose response assay to identify agonists of the human trace amine associated receptor 1 (TAAR1). It is filed as functional.

Assay [5] has as its target T1, Trace amine-associated receptor 1. Briefly: Counterscreen for agonists of the human trace amine associated receptor 1 (hTAAR1): Fluorescence-based cell-based high throughput dose response assay to identify hTAAR1 agonist that also desensitize TAAR1 receptor response. The class given is functional.
Assay [6] can be described thus: cells. It is filed as functional, cell-based. This is another data set of the same source.
The target in assay [7] is Paired box protein Pax-8 (Homo sapiens, UniProt Q06710). Briefly: PAX8 transcriptional activity inhibition in RMG-I – RMG-I cells, luciferase, cherry-pick, dose response (AID 687027).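 Also: luciferase reporter driven by Pax8 target thyroperoxidase promoter measured by SteadyGlo luminescence.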 It is filed as functional, cell-based.
Assay [8] is described as follows: OVCAR-3 cell viability loss – plate reader, dry powder samples, PAX8 inhibitor project, dose response (AID 743044). The class given is functional, cell-based.
A short description of assay [9]: IGROV1 cell killing – plate reader, dry powder samples, PAX8 inhibitor project, dose response (AID 743043). It is filed as functional, cell-based. Particulars: IGROV-1.
A short description of assay [10]: OVCAR8 cell viability loss – plate reader, dry powder samples, PAX8 project, dose response (AID 743197). It is filed as functional, cell-based. Particulars: OVCAR-8.
The target in assay [11] is T2, Mannose-6-phosphate isomerase (Homo sapiens, UniProt P34949).
T2 sequence (P34949 whole entry): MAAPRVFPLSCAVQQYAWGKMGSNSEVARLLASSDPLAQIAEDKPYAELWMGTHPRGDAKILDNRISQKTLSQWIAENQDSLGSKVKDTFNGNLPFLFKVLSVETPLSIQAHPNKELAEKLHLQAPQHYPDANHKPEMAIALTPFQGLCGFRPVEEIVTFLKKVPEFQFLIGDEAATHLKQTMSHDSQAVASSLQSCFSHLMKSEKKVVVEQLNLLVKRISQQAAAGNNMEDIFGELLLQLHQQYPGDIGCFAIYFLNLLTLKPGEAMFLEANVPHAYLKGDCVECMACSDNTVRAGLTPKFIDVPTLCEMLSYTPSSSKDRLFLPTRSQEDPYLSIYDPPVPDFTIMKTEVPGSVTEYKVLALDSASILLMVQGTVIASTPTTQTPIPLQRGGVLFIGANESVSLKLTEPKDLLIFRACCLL
Briefly: MPI inhibition at elevated mannose 6-phosphate – biochemical, fluorescence intensity, high mannose 6-phosphate, primary screen (AID 1220).

For assay [12], the target named is Tyrosyl-DNA phosphodiesterase 2 (Homo sapiens, UniProt O95551). Put plainly: potency against TDP2 phosphodiesterase activity – biochemical, epi absorbance, IC50, dose response (AID 743297).

Molecules are shown by their SMILES. The source made the active and inactive calls.

Chain of Paired box protein Pax-8 (Q06710 whole entry): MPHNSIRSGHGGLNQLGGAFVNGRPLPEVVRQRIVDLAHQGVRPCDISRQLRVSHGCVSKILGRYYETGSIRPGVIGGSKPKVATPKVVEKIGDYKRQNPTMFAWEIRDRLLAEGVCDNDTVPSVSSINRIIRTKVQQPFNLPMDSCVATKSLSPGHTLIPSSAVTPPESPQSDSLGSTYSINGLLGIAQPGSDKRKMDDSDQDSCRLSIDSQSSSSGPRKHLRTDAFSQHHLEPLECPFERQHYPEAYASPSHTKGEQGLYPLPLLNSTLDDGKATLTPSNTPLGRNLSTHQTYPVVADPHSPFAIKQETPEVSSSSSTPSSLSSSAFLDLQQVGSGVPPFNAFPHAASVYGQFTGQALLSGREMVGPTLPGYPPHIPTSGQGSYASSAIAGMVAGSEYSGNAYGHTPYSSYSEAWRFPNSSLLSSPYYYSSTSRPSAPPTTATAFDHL
Chain of Tyrosyl-DNA phosphodiesterase 2 (O95551 whole entry): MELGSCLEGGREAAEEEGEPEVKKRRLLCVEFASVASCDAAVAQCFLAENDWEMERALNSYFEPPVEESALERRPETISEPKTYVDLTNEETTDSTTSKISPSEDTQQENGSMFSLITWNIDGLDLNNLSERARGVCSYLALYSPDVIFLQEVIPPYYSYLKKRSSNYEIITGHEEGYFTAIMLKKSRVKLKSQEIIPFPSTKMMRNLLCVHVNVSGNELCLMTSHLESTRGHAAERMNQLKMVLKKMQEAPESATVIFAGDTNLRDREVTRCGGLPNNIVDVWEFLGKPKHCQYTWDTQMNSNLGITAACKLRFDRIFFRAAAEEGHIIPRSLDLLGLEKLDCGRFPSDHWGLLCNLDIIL

`COc1ccc(NC2=CC(=O)c3ccccc3C2=O)cc1`: the results for the AC50 in assay [1] and in [2] were 0.838 µM (active) and > 70 µM (inactive), respectively.
Consider `CC(C)=C1C2CCC1C(C(=O)NCCc1ccccc1)C2C(=O)O` (configuration not stated), for which the IC50 in assay [3] was > 29.9 µM (inactive); in assay [5], 2.42 µM (active). Further, the EC50 in [4] is 0.189 µM (active); in [6] it was > 29.9 µM (inactive).
Consider `C[C@@H]1CN([C@H](C)CO)C(=O)c2cc(NC(=O)CCC(F)(F)F)ccc2O[C@@H](C)CCCCO[C@@H]1CN(C)Cc1ccc(Cl)c(Cl)c1`, for which the AC50 in assay [7] is 7.47 µM (active); in assay [8], 33.3 µM (active); in [9], 45.7 µM (active); in assay [10], 61 µM (active).
As to `Nn1cnnc1N/N=C\c1ccc(-c2ccccc2[N+](=O)[O-])o1`, the IC50 is > 50 µM (not active) in [11] and > 128 µM (inactive) in assay [12].
